US7271171B2, “Adenosine A3 receptor modulators” (King Pharmaceuticals Research and Development, Inc., priority 1998, dated 2007)
Where two headings read alike, the source gives them in different places.

Tests used:
rA1 adenosine receptor [1] = target: T1, rA1 adenosine receptor (Rattus norvegicus, UniProt P25099); assay: Rat A1 adenosine receptor binding assay, [3H]CHA displacement, rat brain membranes
T1 construct: membranes of rat brain (150-200 μg- of protein/assay); from tissue; host or cells: whole brain of male Wistar rats
T1 sequence (P25099 1-326): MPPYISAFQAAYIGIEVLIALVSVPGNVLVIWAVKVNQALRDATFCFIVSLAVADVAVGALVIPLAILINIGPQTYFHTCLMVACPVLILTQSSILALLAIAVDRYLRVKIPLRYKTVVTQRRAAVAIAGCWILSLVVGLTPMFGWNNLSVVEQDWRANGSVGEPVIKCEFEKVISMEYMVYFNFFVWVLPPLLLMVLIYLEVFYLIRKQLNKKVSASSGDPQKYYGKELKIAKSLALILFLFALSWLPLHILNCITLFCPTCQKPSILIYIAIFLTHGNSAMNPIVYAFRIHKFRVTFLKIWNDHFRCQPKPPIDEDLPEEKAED
Protocol: (§4) Male Wistar rats (200-250 g) were decapitated and the whole brain and striatum dissected on ice. […] The homogenate was centrifuged at 48,000 for 10 min, and the pellet was resuspended in the same buffer containing 2 IU/mL adenosine deaminase. After 30 min incubation at 37° C., the membranes were centrifuged and pellets were stored at −80° C. Prior to freezing, an aliquot of homogenate was removed for protein assay with bovine albumin as reference standard. Binding assays were performed on rat brain and striatum membranes respectively, in the presence of 10 mM MgCl2 at 25° C.
(§5) Separation of bound from free radio ligand was performed by rapid filtration through Whatman GF/B filters which were washed three times with ice-cold buffer. Filter bound radioactivity was measured by scintillation spectrometry after addition of 5 mL of Aquassure. […] Ki values were calculated from the Cheng-Prusoff equation. All binding data were analyzed using the nonlinear regression curve-fitting computer program LIGAND.

[2] = target: T2, human recombinant A3 adenosine receptor (Homo sapiens, UniProt P0DMS8); assay: Human cloned A3 adenosine receptor binding assay, [125I]AB-MECA, HEK-293 membranes; set-up: USA; host or cells: HEK-293
T2 sequence (P0DMS8 1-318): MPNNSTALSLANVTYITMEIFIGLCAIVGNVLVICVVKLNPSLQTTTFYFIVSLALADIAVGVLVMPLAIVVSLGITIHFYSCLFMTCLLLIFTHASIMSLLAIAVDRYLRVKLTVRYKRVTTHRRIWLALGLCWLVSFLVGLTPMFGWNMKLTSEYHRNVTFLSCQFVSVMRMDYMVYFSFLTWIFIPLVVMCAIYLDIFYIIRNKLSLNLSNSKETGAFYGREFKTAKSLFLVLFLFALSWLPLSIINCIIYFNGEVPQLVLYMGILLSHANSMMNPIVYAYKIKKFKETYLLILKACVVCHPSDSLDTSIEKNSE

rA2A adenosine receptor [3] = target: T3, rA2A adenosine receptor (Rattus norvegicus, UniProt P30543); assay: Rat A2A adenosine receptor binding assay, [3H]SCH58261 displacement, rat striatum membranes; conditions: rat striatum membranes, [3H]SCH58261; read-out: rA2A (Ki)
T3 construct: membranes of rat striatum (80-100 μmg of protein/assay); from tissue; host or cells: striatum of male Wistar rats
T3 sequence (P30543 whole entry): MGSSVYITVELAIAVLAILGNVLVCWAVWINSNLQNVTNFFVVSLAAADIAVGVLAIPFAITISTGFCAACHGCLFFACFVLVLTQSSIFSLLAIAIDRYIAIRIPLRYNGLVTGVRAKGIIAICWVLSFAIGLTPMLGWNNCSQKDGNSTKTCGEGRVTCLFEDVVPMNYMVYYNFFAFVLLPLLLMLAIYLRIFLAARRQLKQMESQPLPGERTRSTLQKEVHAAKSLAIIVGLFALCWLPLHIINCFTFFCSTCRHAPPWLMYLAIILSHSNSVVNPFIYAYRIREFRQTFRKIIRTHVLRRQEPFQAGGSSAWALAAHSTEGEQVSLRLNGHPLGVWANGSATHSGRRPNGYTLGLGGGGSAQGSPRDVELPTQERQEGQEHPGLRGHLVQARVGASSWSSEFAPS
Protocol: as §4, §5

adenosine A3 receptor = target: T4, adenosine A3 receptor (Homo sapiens, UniProt P0DMS8); assay: Adenylate cyclase assay: block of agonist-induced inhibition of cAMP production; format: biochemical; conditions: FIG. 2, comparison in words
T4 construct: expressed in transfected cells; host or cells: CHO
T4 sequence (P0DMS8 1-318): T2 sequence (P0DMS8 1-318)
Protocol: (§1) The expression of the human A1, A2A, A2B and A3 receptors in CHO cells has been previously described (Klotz et al., 1998). The cells are grown adherently and maintained in Dulbecco's modified Eagle's medium with nutrient mixture F12 without nucleosides at 37 ° C. in 5% CO2/95% air. Cells are split two or three times weekly and then the culture medium is removed for membrane preparations. The cells are washed with phosphate-buffered saline and scraped off flasks in ice cold hypotonic buffer (5 mM Tris HCl, 2 mM EDTA, pH 7.4). The cell suspension is homogenized with Polytron and the homogenate is centrifuged for 30 min. at 48,000 g. The membrane pellet is re-suspended in 50 mM Tris HCl buffer at pH 7.4 for A1 adenosine receptors, in 50 mM Tris HCl, 10 mM MgCl2 at pH 7.4 for A2A adenosine receptors, in 50 mM Tris HCl, 10 mM MgCl2, 1 mM EDTA at pH 7.4 for A3 adenosine receptors and are utilized for binding and adenylate cyclase assays.
Membrane preparation is suspended in 0.5 mL of incubation mixture (50 mM Tris HCl, MgCl2 10 mM, EDTA, 1 mM, pH 7.4) containing GTP 5 µM, 0.5 mM 4-(3-buthoxy-4-methoxybenzyl)-2-imidazolidinone (Ro 20-1274) as phosphodiesterase inhibitor, 2.0 IU/mL adenosine deaminase and pre-incubated for 10 min. in a shaking bath at 37° C. […]

[4] = target: T5, human recombinant A2A adenosine receptors (Homo sapiens, UniProt P29274); assay: Human cloned A2A receptor binding, [3H]-SCH58261, CHO cells; conditions: read-out: hA2A (Ki)
T5 construct: expressed in transfected cells; host or cells: CHO
T5 sequence (P29274 whole entry): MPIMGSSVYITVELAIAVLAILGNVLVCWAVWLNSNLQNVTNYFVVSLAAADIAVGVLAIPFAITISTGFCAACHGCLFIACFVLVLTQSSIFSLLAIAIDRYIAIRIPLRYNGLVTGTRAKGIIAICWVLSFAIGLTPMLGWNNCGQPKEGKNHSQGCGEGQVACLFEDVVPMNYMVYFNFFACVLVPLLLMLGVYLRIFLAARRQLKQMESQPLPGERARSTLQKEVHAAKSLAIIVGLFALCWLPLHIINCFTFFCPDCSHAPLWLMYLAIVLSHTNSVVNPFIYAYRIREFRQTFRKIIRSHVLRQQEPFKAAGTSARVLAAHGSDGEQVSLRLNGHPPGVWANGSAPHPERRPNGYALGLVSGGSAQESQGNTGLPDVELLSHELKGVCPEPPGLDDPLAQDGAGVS
Protocol: as §1
(§2) Displacement experiments are performed for 120 min. at 25° C. in 0.20 mL of buffer containing 1 nM [^3H]-DPCPX, 20 μL of diluted membranes (50 μg of protein/assay) and at least 6-8 different concentrations of examined compounds. Non-specific binding is determined in the presence of 10 μM of CHA and this is always 10% of the total binding. Binding of [^3H]-SCH58261 to CHO cells transfected with the human recombinant A2A adenosine receptors (50 μg of protein/assay) was performed according to Varani et al. (Varani, K; Cacciari, B.; Baraldi, P. G.; Dionisotti, S.; Ongini, E.; Borea, P. A., “Binding affinity of adenosine receptor agonists and antagonists at human cloned […] adenosine receptors,” Life Sci., 63, 81-87, 1998). In competition studies, at least 6-8 different concentrations of compounds are used and non-specific binding is determined in the presence of 50 μM NECA for an incubation time of 60 min. at 25° C.

[5] = target: T6, human recombinant A2B adenosine receptors (Homo sapiens, UniProt P29275); assay: Human cloned A2B receptor binding, [3H]-DPCPX, HEK-293 cells; conditions: read-out: hA2B (Ki)
T6 construct: host or cells: HEK-293
T6 sequence (P29275 1-332): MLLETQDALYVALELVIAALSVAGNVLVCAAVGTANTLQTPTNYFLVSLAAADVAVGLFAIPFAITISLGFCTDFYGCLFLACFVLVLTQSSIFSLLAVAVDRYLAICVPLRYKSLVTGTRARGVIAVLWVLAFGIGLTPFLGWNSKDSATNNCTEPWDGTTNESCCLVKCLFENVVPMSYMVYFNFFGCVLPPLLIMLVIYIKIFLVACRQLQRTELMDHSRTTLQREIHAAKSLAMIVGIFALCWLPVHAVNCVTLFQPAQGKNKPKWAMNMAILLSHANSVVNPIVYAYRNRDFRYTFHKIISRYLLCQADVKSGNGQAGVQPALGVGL
Protocol: Binding of [^3H]-DPCPX to HEK-293 cells (Receptor Biology, Inc., Beltsville, Md.) transfected with the human recombinant A2B adenosine receptors is performed essentially to the method described by Varani and coworkers (Mol. Pharmacol.). In particular, assays are carried out for 60 min. at 25° C. in 0.1 mL of 50 mM Tris HCl Buffer, 10 mM MgCl2, 1 mM EDTA, 0.1 mM benzamidine pH 7.4, 2 IU/ml adenosine deaminase containing 40 nM [^3H]-DPCPX, diluted membranes (20 µg of protein/assay) and at least 6-8 different concentration of tested compounds. Non-specific binding is determined in the presence of 100 μM of NECA and is always 30% of the total binding.

[6] = target: T7, human recombinant A1 adenosine receptor (Homo sapiens, UniProt P30542); assay: Human cloned A1 receptor binding, [3H]-DPCPX, CHO cells; conditions: read-out: hA1 (Ki)
T7 construct: expressed in transfected cells; host or cells: CHO
T7 sequence (P30542 1-326): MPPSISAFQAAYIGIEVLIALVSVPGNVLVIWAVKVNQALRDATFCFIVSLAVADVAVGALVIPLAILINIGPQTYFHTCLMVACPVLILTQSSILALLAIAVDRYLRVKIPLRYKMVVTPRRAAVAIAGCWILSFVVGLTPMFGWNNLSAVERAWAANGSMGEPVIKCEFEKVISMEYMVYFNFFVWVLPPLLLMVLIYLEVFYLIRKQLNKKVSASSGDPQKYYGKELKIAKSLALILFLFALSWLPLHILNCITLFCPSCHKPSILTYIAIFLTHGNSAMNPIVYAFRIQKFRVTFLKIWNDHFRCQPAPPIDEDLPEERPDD
Protocol: as §1
Binding of [^3H]-DPCPX to CHO cells transfected with the human recombinant A1 adenosine receptor is performed according to the method previously described by Klotz and coworkers (Klotz, K. N.; Cristalli, G.; Grifantini, M.; Vittori, S.; Lohse, M. J., “Photoaffinity labeling of A1 adenosine receptors,” J. Biol. Chem., 260, 14659-14664, 1985).
as §2

Solubility in water = format: physicochemical
rA2A adenosine receptor [7] = target: T3, rA2A adenosine receptor; conditions: values taken from Kim et al., J. Med. Chem. 1996; cited from earlier work
rA1 adenosine receptor [8] = target: T1, rA1 adenosine receptor; conditions: values taken from Kim et al., J. Med. Chem. 1996; cited from earlier work
SKN-MC cell membranes = assay: [125I]-ABMECA binding on tumor cell line membranes; conditions: 0.5 nM radioligand
Protocol: (§3) A series of binding experiments were performed on various tumor cell lines, using 0.5 nM [^125I]-ABMECA, with unspecific binding determined in the presence of 50 μM R-PIA or 200 μM NECA, on cell membranes of the cell lines. Specific binding was determined by substracting unspecific binding from total binding. The cell lines were the HL 60, NB4, SKN-MC, SKN-Be2C, SKN-SH and JURKAT cell lines.

SKN-SH cell membranes = assay: [125I]-ABMECA binding on tumor cell line membranes; conditions: 0.5 nM radioligand
Protocol: as §3

SKN-Be2C cell membranes = assay: [125I]-ABMECA binding on tumor cell line membranes; conditions: 0.5 nM radioligand
Protocol: as §3

NB4 cell membranes = assay: [125I]-ABMECA binding on tumor cell line membranes; conditions: NB4, 0.5 nM radioligand
Protocol: as §3

[9] = target: T8, human A3 receptors expressed in HEK 293 cells (Homo sapiens, UniProt P0DMS8); conditions: saturation curve, FIG. 1, n=3
T8 sequence (P0DMS8 1-318): T2 sequence (P0DMS8 1-318)

HL 60 cell membranes = assay: [125I]-ABMECA binding on tumor cell line membranes; set-up: species or system human; conditions: HL 60, 0.5 nM radioligand
Protocol: as §3

JURKAT cell membranes = assay: [125I]-ABMECA binding on tumor cell line membranes; set-up: species or system human; conditions: 0.5 nM radioligand
Protocol: as §3

[10] = target: T9, A3 receptor in Jurkat cell membranes (Homo sapiens, UniProt P0DMS8)
T9 sequence (P0DMS8 1-318): T2 sequence (P0DMS8 1-318)

CC(C)CCn1cc2c(nc(NC(=O)Cc3ccccc3)n3nc(-c4ccco4)nc23)n1 [Compound 58, 5-[(Benzyl)carbonyl]amino-8-isopentyl-2-(2-furyl)-pyrazolo[4,3.e]1,2,4-triazolo[1,5-c]pyrimidine]
Ki (rA1 adenosine receptor [1]): 373 nM
Ki ([2]; HEK-293 membranes, [125I]AB-MECA, read-out: hA3 (Ki)): 81.1 nM
rA1/hA3 ([2]; selectivity ratio of Ki values): 4.6
rA2A/hA3 ([2]; selectivity ratio of Ki values): 4
melting point: 144 to 145 °C
Ki (rA2A adenosine receptor [3]): 323 nM

Cn1cc2c(nc(NC(=O)Nc3ccncc3)n3nc(-c4ccco4)nc23)n1 [Compound 106, N-[2-(2-furyl)-8-methyl-8H-pyrazolo[4,3-e][1,2,4]triazolo[1,5-c]pyrimidin-5-yl]-N′-pyridin-4-yl urea]
potency of adenosine A3 antagonism (block of C1-IB-MECA induced inhibition of cAMP production) (adenosine A3 receptor): comparable
Ki [4]: 60 nM
Ki [5]: 200 nM
Ki [6]: 250 nM

Cl.Cn1cc2c(nc(NC(=O)Nc3ccncc3)n3nc(-c4ccco4)nc23)n1 [Compound 107, N-[2-(2-furyl)-8-methyl-8H-pyrazolo[4,3-e][1,2,4]triazolo[1,5-c]pyrimidin-5-yl]-N′-pyridin-4-ylurea hydrochloride]
solubility in water (Solubility in water): soluble in water
potency of adenosine A3 antagonism (block of C1-IB-MECA induced inhibition of cAMP production) (adenosine A3 receptor): comparable
Ki ([4]; hydrochloride): 100 nM
Ki ([5]; hydrochloride): 250 nM
Ki ([6]; hydrochloride): 350 nM

O=C(Cc1ccccc1)Nc1nc2ccc(Cl)cc2c2nc(-c3ccco3)nn12 [MRS 1220]
Ki (rA2A adenosine receptor [7]): 52 ± 8.8 nM
Ki (rA1 adenosine receptor [8]): 305 ± 51 nM

CNC(=O)[C@H]1O[C@@H](n2cnc3c(NCc4ccc(N)c([125I])c4)ncnc32)[C@H](O)[C@@H]1O [[^125I]AB-MECA, [^125I]N^6-(4-amino-3-iodobenzyl)adenosine-5′N-methyluronamide]
Percent Specific Binding (SKN-MC cell membranes): 17%
Specific Binding (cpm) (SKN-MC cell membranes): 1308 cpm
Percent Specific Binding (SKN-SH cell membranes): 3%
Specific Binding (cpm) (SKN-SH cell membranes): 91 cpm
Percent Specific Binding (SKN-Be2C cell membranes): 24%
Specific Binding (cpm) (SKN-Be2C cell membranes): 1415 cpm
Percent Specific Binding (NB4 cell membranes): 19%
Specific Binding (cpm) (NB4 cell membranes): 637 cpm
Bmax value [9]: 62±1 fmol/mg protein
Percent Specific Binding (HL 60 cell membranes): 20%
Specific Binding (cpm) (HL 60 cell membranes): 693 cpm
Percent Specific Binding (JURKAT cell membranes): 38%
Specific Binding (cpm) (JURKAT cell membranes): 2846 cpm
Bmax (fmol/mg protein) / density of A3 receptor detected ([10]; FIG. 3): approximately 300 fmol/mg protein
Bmax (fmol/mg protein) / density of A3 receptor detected ([10]; FIG. 3, listed as [^125I]-ABMECA): 290 fmol/mg protein
